Results published in patent US20200270232A1, “INHIBITORS OF INTEGRATED STRESS RESPONSE PATHWAY” (Praxis Biotech LLC, priority 2019, published 2020).

What was measured:
[1] = tested on: Chinese hamster ovary (CHO) cells; assay: Protein translation assay (puromycin labelling, western blot); assay type: cell-based; details: 2 hours, media alone = 100%; for activity at 1 µM: Cricetulus griseus, unstressed CHO cells (without Tg), 1 μM test compound, read-out: % Protein synthesis relative to untreated (1 μM test compound); for % Recovery of protein synthesis (1 μM test compound): stressed CHO cells, 300 nM Tg, Tg alone = 0%
Experimental: Chinese hamster ovary (CHO) cells were maintained at 37° C. and 5% C02 in Dulbecco's Modified Eagle's Media (DMEM) supplemented with 10% fetal bovine serum, 2 mM L-glutamine, 100 U/ml penicillin, and 100 μg/ml streptomycin. After reaching 80% of confluence, cells were detached and seeded on 6 well plates in complete media, allowed to recover overnight and treated for 2 hours with 1 μM of the test compound (to assess protein synthesis levels in unstressed condition), or for 2 hours with 300 nM Tg in the presence of 1 μM of the test compound (to assess the recovery of protein synthesis in a stressed condition). Cells with Tg alone were used as controls.
After the 2 hours treatments, media were replaced by adding 10 μg/ml puromycin (Sigma Aldrich # P8833) in complete media for 30 min. Media were removed and cells were lysed with SDS-PAGE lysis buffer. Lysates were transferred to 1.5 ml tubes and sonicated for 3 min and total protein amount were quantified using BCA Protein Assay Kit (Pierce). Equal amount of protein (30 μg) was loaded on SDS-PAGE gels. Proteins were transferred onto 0.2 μm PVDF membranes (BioRad) and probed with primary antibodies diluted in Tris-buffered saline supplemented with 0.1% Tween 20 (Merck # S6996184 505) and 3% bovine serum albumin (Rockland # BSA-50).
Puromycin (12D10) (Merck # MABE343) and β-actin (Sigma Aldrich # A5441) antibodies were used as primary antibody. A HRP-conjugated secondary antibody (Rockland) was employed to detect immune-reactive bands using enhanced chemiluminescence (ECL Western Blotting Substrate, Pierce). Quantification of protein bands was done by densitometry using ImageJ software.
Percent increase of protein synthesis in unstressed cells (without Tg treatment) in the presence of media alone or certain test compounds is shown in Table 3. The percentage levels were normalized to the media alone condition, which correspond to 100% protein synthesis.
Percent recovery of protein synthesis in stressed cells (with Tg treatment) due to the test compounds at 1 μM is also shown in Table 3. The levels were normalized to the media alone and Tg alone conditions, which correspond to 100% and 0% respectively.

ATF4 = ATF4 expression inhibition assay (ATF4 luciferase reporter); assay type: cell-based; details: Homo sapiens, HEK-293T; HEK293T cells carrying the ATF4 luciferase reporter, 100 nM thapsigargin (Tg), 3 hours; read-out: ATF4 inhbition IC50
Experimental: The ATF4 reporter was prepared by fusing the human full length 5′UTR of ATF4 (NCBI Accession No. BC022088.2) upstream of the firefly luciferase coding sequence lacking the initiator methionine. The fused sequence was cloned into pLenti-EF1a-C-Myc-DDK-IRES-Puro cloning vector (Origen # PS 100085) using standard methods. Virus production was carried out by using Lenti-X™ Packaging Single Shots Protocol (Clonetech #631276). Viral particles were used to transduce HEK293T cells (ATCC # CRL-3216, ATCC Manassas, Va.), which were subsequently selected with puromycin to generate stable cell line. Cells were maintained at 37° C. and 5% CO2 in DMEM-F12 (Hyclone # SH30023.02) supplemented with 10% heat-inactivated fetal bovine serum (Gibco #16000-044), 2 mM L-glutamine (Gibco #25030-081), 100 U/ml penicillin, and 100 μg/ml streptomycin (Gibco #15140-122).
HEK293T cells carrying the ATF4 luciferase reporter were plated on 96-well plates (Nunc) at 10,000 cells per well. Cells were treated two days after seeding with 100 nM thapsigargin (Tg) (Sigma-Aldrich # T9033) in the presence of different concentrations of selected compounds ranging from 1 nM to 10 μM. Cells without treatment or cells treated with Tg alone were used as controls. Assay plates containing cells were incubated for 3 hours at 37° C.
Luciferase reactions were performed using Luciferase Assay System (Promega # E1501) as specified by the manufacturer. Luminescence was read with an integration time of 1 s and a gain of 110 using a Cytation-5 multi-mode microplate reader (BioTek). Relative luminescence units were normalized to Tg treatment (0% inhibition) and untreated cells (100% inhibition) and the percentage of ATF4 inhibition was calculated.
Accordingly, inhibition of ATF4 expression as a result of the test compound indicates suppression of the ISR pathway.

IC50 (ATF4) [µM] | Structure (SMILES) | activity at 1 µM [1] [%] | % Recovery of protein synthesis (1 μM test compound) [1] [%]
> 0.1 | O=C(NC1CCN(CC(O)COc2ccc(Cl)c(F)c2)C1)c1cc2cc(Cl)ccc2o1 (stereo not drawn) [Compound 98, 5-chloro-N-(1-(3-(4-chloro-3-fluorophenoxy)-2-hydroxypropyl)pyrrolidin-3-yl)benzofuran-2-carboxamide] | 167 | 142.63
> 0.1 | O=C(COc1ccc(Cl)c(F)c1)NC1CCN(CC(O)COc2ccc(Cl)c(F)c2)C1 (stereo not drawn) [Compound 99, 2-(4-chloro-3-fluorophenoxy)-N-(1-(3-(4-chloro-3-fluorophenoxy)-2-hydroxypropyl)pyrrolidin-3-yl)acetamide] | 67.7 | 0.00
> 0.1 | O=C(COc1ccc(Cl)c(F)c1)NC1CCN(CCCOc2ccc(Cl)c(F)c2)C1 (stereo not drawn) [Compound 100, 2-(4-chloro-3-fluorophenoxy)-N-(1-(3-(4-chloro-3-fluorophenoxy)propyl)pyrrolidin-3-yl)acetamide] | 69.1 | 0.00
> 0.1 | O=C(NC1CCN(CCCOc2ccc(Cl)c(F)c2)C1)c1cc2cc(Cl)ccc2o1 (stereo not drawn) [Compound 101, 5-chloro-N-(1-(3-(4-chloro-3-fluorophenoxy)propyl)pyrrolidin-3-yl)benzofuran-2-carboxamide] | 93.2 | 86.10
